According to paper PMC9532703, “A novel small molecule RK-019 inhibits FGFR2-amplification gastric cancer cell proliferation and induces apoptosis in vitro and in vivo” (Frontiers in Pharmacology, 2022):

Legend:
Test in all cases: Kinase selectivity panel
Format in all cases: biochemical
NEK3(h) = molecular target: T1, NEK3(h) (Homo sapiens, UniProt P51956); settings: read-out: Inhibition(%) @ 1 µM RK-019
T1 construct: purchased Eurofins Discovery Services (KinaseProfiler)
Outline: (§1)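 Selectivity profiling used one concentration (1 µM) in an ATP-site competition binding assay over 422 recombinant human kinases; data given as inhibition ratio.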

HRI(h) = molecular target: T2, HRI(h) (Homo sapiens, UniProt Q9BQI3); settings: read-out: Inhibition(%) @ 1 µM RK-019
T2 construct: purchased Eurofins Discovery Services (KinaseProfiler)
Outline: as §1

Fms(Y969C)(h) = molecular target: T3, Fms(Y969C)(h) (Homo sapiens, UniProt P07333, Y969C); settings: read-out: Inhibition(%) @ 1 µM RK-019
T3 construct: purchased Eurofins Discovery Services (KinaseProfiler)
T3 sequence (P07333 20-972 Y969C): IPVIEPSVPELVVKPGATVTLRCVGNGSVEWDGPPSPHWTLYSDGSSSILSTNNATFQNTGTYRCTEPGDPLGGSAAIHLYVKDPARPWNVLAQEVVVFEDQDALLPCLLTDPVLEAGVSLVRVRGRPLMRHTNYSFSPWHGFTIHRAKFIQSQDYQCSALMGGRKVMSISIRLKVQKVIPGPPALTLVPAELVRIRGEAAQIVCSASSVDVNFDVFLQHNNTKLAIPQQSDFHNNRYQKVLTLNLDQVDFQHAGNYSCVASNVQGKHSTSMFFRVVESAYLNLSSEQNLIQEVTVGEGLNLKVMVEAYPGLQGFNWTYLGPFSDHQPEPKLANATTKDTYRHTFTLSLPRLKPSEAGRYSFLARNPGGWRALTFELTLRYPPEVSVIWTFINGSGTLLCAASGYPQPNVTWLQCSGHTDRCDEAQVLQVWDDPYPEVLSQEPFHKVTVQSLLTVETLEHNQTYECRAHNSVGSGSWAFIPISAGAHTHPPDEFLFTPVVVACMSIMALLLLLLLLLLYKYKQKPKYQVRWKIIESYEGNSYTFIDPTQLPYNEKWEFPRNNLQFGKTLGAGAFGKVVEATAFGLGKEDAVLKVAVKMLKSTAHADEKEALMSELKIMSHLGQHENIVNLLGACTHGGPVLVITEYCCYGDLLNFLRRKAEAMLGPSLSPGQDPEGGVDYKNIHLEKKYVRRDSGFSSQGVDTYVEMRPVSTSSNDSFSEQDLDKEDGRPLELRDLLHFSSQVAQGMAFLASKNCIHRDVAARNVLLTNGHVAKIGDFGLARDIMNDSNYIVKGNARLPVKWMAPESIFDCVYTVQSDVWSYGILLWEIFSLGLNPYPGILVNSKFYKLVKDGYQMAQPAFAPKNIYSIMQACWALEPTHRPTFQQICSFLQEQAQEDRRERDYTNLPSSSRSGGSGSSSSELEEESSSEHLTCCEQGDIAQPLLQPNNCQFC
Outline: as §1

PAK1(h) = molecular target: T4, PAK1(h) (Homo sapiens, UniProt Q13153); settings: read-out: Inhibition(%) @ 1 µM RK-019
T4 construct: purchased Eurofins Discovery Services (KinaseProfiler)
Outline: as §1

LIMK2(h) = molecular target: T5, LIMK2(h) (Homo sapiens, UniProt P53671); settings: read-out: Inhibition(%) @ 1 µM RK-019
T5 construct: purchased Eurofins Discovery Services (KinaseProfiler)
Outline: as §1

Ret(h) = molecular target: T6, Ret(h) (Homo sapiens, UniProt P07949)
T6 construct: purchased Eurofins Discovery Services (KinaseProfiler)
T6 sequence (P07949 29-1114): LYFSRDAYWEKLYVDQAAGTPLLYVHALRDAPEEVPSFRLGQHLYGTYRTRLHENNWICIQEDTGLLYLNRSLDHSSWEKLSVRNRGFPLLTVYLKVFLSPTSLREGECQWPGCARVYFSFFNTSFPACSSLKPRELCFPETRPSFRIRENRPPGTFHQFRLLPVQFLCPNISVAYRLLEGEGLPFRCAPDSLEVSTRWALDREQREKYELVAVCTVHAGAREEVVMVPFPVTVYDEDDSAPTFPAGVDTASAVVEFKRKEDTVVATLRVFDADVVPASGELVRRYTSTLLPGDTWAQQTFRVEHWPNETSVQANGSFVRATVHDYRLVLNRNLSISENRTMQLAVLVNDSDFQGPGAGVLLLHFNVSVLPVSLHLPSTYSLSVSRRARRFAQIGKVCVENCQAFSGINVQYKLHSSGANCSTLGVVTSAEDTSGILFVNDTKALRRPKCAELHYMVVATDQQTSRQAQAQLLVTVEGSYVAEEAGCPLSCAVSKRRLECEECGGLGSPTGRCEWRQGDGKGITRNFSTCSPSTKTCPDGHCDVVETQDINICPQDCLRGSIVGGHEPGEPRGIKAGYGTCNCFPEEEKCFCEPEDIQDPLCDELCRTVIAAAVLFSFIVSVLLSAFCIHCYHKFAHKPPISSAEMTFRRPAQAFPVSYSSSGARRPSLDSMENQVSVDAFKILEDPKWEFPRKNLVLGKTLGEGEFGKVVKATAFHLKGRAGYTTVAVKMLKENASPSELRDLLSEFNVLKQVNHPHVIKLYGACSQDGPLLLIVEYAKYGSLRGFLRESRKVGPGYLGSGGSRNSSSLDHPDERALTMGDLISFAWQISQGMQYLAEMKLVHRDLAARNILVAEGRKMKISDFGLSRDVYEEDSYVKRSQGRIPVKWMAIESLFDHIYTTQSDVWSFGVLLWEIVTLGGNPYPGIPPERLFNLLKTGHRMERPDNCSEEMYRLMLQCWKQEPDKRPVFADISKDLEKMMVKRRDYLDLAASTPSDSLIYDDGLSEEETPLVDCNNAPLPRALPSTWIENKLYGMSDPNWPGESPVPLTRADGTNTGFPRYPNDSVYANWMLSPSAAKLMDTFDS
Outline: as §1

PhKγ2(h) = molecular target: T7, PhKγ2(h) (Homo sapiens, UniProt P15735); settings: read-out: Inhibition(%) @ 1 µM RK-019
T7 construct: purchased Eurofins Discovery Services (KinaseProfiler)
Outline: as §1

TGFBR1(h) = molecular target: T8, TGFBR1(h) (Homo sapiens, UniProt P36897); settings: read-out: Inhibition(%) @ 1 µM RK-019
T8 construct: purchased Eurofins Discovery Services (KinaseProfiler)
Outline: as §1

TTBK2(h) = molecular target: T9, TTBK2(h) (Homo sapiens, UniProt Q6IQ55); settings: read-out: Inhibition(%) @ 1 µM RK-019
T9 construct: purchased Eurofins Discovery Services (KinaseProfiler)
Outline: as §1

TAO2(h) = molecular target: T10, TAO2(h) (Homo sapiens, UniProt Q9UL54); settings: read-out: Inhibition(%) @ 1 µM RK-019
T10 construct: purchased Eurofins Discovery Services (KinaseProfiler)
Outline: as §1

CDKL1(h) = molecular target: T11, CDKL1(h) (Homo sapiens, UniProt Q00532); settings: read-out: Inhibition(%) @ 1 µM RK-019
T11 construct: purchased Eurofins Discovery Services (KinaseProfiler)
Outline: as §1

PTK5(h) = molecular target: T12, PTK5(h) (Homo sapiens, UniProt P42685); settings: read-out: Inhibition(%) @ 1 µM RK-019
T12 construct: purchased Eurofins Discovery Services (KinaseProfiler)
Outline: as §1

CDK18/cyclinY(h) = molecular target: T13, CDK18/cyclinY(h) (Homo sapiens, UniProt Q07002); settings: read-out: Inhibition(%) @ 1 µM RK-019
T13 construct: purchased Eurofins Discovery Services (KinaseProfiler)
Outline: as §1

CK1γ2(h) = molecular target: T14, CK1γ2(h) (Homo sapiens, UniProt P78368); settings: read-out: Inhibition(%) @ 1 µM RK-019
T14 construct: purchased Eurofins Discovery Services (KinaseProfiler)
Outline: as §1

LRRK2(h) = molecular target: T15, LRRK2(h) (Homo sapiens, UniProt Q5S007); settings: read-out: Inhibition(%) @ 1 µM RK-019
T15 construct: purchased Eurofins Discovery Services (KinaseProfiler)
Outline: as §1

NEK6(h) = molecular target: T16, NEK6(h) (Homo sapiens, UniProt Q9HC98); settings: read-out: Inhibition(%) @ 1 µM RK-019
T16 construct: purchased Eurofins Discovery Services (KinaseProfiler)
T16 sequence (Q9HC98 whole entry): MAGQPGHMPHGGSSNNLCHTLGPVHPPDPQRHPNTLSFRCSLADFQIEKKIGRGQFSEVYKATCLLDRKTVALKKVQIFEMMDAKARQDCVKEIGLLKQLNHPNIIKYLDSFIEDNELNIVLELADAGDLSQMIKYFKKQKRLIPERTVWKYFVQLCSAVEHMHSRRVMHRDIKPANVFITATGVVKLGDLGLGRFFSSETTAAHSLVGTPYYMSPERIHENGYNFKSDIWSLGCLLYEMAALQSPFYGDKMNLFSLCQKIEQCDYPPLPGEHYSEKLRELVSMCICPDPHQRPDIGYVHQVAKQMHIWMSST
Outline: as §1

PKA(h) = molecular target: T17, PKA(h) (Homo sapiens, UniProt P17612); settings: read-out: Inhibition(%) @ 1 µM RK-019
T17 construct: purchased Eurofins Discovery Services (KinaseProfiler)
Outline: as §1

cKit(D816V)(h) = molecular target: T18, cKit(D816V)(h) (Homo sapiens, UniProt P10721, D816V); settings: read-out: Inhibition(%) @ 1 µM RK-019
T18 construct: purchased Eurofins Discovery Services (KinaseProfiler)
Outline: as §1

TTBK1(h) = molecular target: T19, TTBK1(h) (Homo sapiens, UniProt Q5TCY1); settings: read-out: Inhibition(%) @ 1 µM RK-019
T19 construct: purchased Eurofins Discovery Services (KinaseProfiler)
Outline: as §1

GRK5(h) = molecular target: T20, GRK5(h) (Homo sapiens, UniProt P34947); settings: read-out: Inhibition(%) @ 1 µM RK-019
T20 construct: purchased Eurofins Discovery Services (KinaseProfiler)
Outline: as §1

Fgr(h) = molecular target: T21, Fgr(h) (Homo sapiens, UniProt P09769); settings: read-out: Inhibition(%) @ 1 µM RK-019
T21 construct: purchased Eurofins Discovery Services (KinaseProfiler)
Outline: as §1

[1] = molecular target: T22, PI3 Kinase (p110d/p85a)(h) (Homo sapiens, UniProt O00329); settings: read-out: Inhibition(%) @ 1 µM RK-019
T22 construct: purchased Eurofins Discovery Services (KinaseProfiler)
Outline: as §1

Fer(h) = molecular target: T23, Fer(h) (Homo sapiens, UniProt P16591); settings: read-out: Inhibition(%) @ 1 µM RK-019
T23 construct: purchased Eurofins Discovery Services (KinaseProfiler)
Outline: as §1

PRK2(h) = molecular target: T24, PRK2(h) (Homo sapiens, UniProt Q16513); settings: read-out: Inhibition(%) @ 1 µM RK-019
T24 construct: purchased Eurofins Discovery Services (KinaseProfiler)
Outline: as §1

NEK1(h) = molecular target: T25, NEK1(h) (Homo sapiens, UniProt Q96PY6); settings: read-out: Inhibition(%) @ 1 µM RK-019
T25 construct: purchased Eurofins Discovery Services (KinaseProfiler)
T25 sequence (Q96PY6 whole entry): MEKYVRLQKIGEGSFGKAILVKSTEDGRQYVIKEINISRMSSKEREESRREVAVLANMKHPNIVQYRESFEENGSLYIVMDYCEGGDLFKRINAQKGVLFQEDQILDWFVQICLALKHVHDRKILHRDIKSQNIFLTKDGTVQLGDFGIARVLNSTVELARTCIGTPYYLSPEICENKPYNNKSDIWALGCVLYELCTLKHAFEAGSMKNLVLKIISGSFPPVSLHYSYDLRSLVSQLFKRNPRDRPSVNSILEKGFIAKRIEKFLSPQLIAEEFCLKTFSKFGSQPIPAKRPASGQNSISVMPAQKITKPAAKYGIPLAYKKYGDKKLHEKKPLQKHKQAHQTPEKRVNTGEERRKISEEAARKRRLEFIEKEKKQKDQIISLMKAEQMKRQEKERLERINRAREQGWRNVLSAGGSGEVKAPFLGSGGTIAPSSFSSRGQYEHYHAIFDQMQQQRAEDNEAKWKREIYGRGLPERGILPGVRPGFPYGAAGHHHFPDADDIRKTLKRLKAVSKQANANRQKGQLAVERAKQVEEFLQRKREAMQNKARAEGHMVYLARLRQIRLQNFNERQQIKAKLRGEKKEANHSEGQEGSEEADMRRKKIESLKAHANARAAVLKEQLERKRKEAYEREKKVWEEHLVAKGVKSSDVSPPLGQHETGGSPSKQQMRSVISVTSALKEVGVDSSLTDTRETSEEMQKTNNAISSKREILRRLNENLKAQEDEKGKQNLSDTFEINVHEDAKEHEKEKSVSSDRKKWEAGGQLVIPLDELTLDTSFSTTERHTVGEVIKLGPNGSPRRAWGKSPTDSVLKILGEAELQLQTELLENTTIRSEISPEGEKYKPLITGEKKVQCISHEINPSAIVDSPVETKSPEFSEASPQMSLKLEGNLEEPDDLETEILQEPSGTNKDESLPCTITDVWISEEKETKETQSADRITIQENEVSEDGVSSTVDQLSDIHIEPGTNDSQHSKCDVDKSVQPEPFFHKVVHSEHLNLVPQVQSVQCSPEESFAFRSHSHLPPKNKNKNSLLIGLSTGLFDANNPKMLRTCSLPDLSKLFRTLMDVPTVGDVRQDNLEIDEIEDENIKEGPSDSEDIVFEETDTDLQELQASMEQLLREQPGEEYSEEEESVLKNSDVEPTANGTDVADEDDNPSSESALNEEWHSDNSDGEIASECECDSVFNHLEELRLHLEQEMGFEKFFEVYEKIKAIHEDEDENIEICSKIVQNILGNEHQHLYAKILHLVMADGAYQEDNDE
Outline: as §1

[2] = molecular target: T26, PI3 Kinase (p110a(E542K)/p85a)(h) (Homo sapiens, UniProt P42336, E542K); settings: read-out: Inhibition(%) @ 1 µM RK-019
T26 construct: purchased Eurofins Discovery Services (KinaseProfiler)
Outline: as §1

p70S6K(h) = molecular target: T27, p70S6K(h) (Homo sapiens, UniProt P23443); settings: read-out: Inhibition(%) @ 1 µM RK-019
T27 construct: purchased Eurofins Discovery Services (KinaseProfiler)
T27 sequence (P23443 whole entry): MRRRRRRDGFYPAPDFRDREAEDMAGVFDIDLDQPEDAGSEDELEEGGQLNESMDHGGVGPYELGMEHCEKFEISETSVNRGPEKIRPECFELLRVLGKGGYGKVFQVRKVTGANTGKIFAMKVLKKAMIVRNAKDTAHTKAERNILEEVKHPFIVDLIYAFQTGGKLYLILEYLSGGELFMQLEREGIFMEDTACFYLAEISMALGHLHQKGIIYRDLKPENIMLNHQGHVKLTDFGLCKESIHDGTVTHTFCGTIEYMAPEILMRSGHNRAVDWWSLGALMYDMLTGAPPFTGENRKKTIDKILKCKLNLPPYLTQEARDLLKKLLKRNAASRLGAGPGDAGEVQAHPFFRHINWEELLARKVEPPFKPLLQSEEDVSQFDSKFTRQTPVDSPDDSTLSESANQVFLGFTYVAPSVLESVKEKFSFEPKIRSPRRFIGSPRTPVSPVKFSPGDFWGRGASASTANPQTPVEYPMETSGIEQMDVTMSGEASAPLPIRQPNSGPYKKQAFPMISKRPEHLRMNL
Outline: as §1

mTOR/FKBP12(h) = molecular target: T28, mTOR/FKBP12(h) (Homo sapiens, UniProt P42345); settings: read-out: Inhibition(%) @ 1 µM RK-019
T28 construct: purchased Eurofins Discovery Services (KinaseProfiler)
Outline: as §1

BTK(R28H)(h) = molecular target: T29, BTK(R28H)(h) (Homo sapiens, UniProt Q06187, R28H); settings: read-out: Inhibition(%) @ 1 µM RK-019
T29 construct: purchased Eurofins Discovery Services (KinaseProfiler)
Outline: as §1

CDKL3(h) = molecular target: T30, CDKL3(h) (Homo sapiens, UniProt Q8IVW4); settings: read-out: Inhibition(%) @ 1 µM RK-019
T30 construct: purchased Eurofins Discovery Services (KinaseProfiler)
T30 sequence (Q8IVW4 whole entry): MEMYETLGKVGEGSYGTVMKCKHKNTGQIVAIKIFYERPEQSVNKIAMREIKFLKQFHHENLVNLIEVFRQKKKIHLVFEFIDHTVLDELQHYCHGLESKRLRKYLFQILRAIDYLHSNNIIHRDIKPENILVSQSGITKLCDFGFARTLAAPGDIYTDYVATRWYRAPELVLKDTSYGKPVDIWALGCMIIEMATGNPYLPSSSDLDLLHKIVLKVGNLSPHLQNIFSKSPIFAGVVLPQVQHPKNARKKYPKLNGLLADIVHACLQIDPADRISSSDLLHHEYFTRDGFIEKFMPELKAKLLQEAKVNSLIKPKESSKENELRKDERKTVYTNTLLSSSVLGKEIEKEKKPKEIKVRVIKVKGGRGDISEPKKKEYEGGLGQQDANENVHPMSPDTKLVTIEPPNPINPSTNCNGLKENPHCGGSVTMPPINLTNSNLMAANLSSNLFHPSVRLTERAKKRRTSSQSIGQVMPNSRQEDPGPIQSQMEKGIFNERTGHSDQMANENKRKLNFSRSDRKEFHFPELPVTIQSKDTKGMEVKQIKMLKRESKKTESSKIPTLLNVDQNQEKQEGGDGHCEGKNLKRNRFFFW
Outline: as §1

PI3 Kinase (p120g)(h) = molecular target: T31, PI3 Kinase (p120g)(h) (Homo sapiens, UniProt P48736); settings: read-out: Inhibition(%) @ 1 µM RK-019
T31 construct: purchased Eurofins Discovery Services (KinaseProfiler)
Outline: as §1

CDK5/p25(h) = molecular target: T32, CDK5/p25(h) (Homo sapiens, UniProt Q00535); settings: read-out: Inhibition(%) @ 1 µM RK-019
T32 construct: purchased Eurofins Discovery Services (KinaseProfiler)
Outline: as §1

BIKe(h) = molecular target: T33, BIKe(h) (Homo sapiens, UniProt Q9NSY1); settings: read-out: Inhibition(%) @ 1 µM RK-019
T33 construct: purchased Eurofins Discovery Services (KinaseProfiler)
Outline: as §1

CaMKIß(h) = molecular target: T34, CaMKIß(h) (Homo sapiens, UniProt Q6P2M8); settings: read-out: Inhibition(%) @ 1 µM RK-019
T34 construct: purchased Eurofins Discovery Services (KinaseProfiler)
T34 sequence (Q6P2M8 whole entry): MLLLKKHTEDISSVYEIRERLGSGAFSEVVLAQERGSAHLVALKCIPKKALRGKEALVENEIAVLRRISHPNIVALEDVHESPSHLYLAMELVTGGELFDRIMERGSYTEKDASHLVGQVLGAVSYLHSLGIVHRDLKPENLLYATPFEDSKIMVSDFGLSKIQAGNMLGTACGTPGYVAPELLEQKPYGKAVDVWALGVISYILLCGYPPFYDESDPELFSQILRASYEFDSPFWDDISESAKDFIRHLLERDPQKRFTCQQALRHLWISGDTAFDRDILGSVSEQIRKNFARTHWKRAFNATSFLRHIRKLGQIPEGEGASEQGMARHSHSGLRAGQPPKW
Outline: as §1

MELK(h) = molecular target: T35, MELK(h) (Homo sapiens, UniProt Q14680); settings: read-out: Inhibition(%) @ 1 µM RK-019
T35 construct: purchased Eurofins Discovery Services (KinaseProfiler)
Outline: as §1

VRK2(h) = molecular target: T36, VRK2(h) (Homo sapiens, UniProt Q86Y07); settings: read-out: Inhibition(%) @ 1 µM RK-019
T36 construct: purchased Eurofins Discovery Services (KinaseProfiler)
Outline: as §1

COc1cc(OC)cc(N(CCN[C@H](C)CO)c2ccc3ncc(-c4cnn(C)c4)c(=O)n3c2)c1 [RK-019, (R)-7-((3,5-dimethoxyphenyl) (2-((1-hydroxypropan-2-yl)amino)ethyl)amino)-3-(1-methyl-1H-pyrazol-4-yl)-4H-pyrido [1,2-a]pyrimidin-4-one]
activity at 1 µM (NEK3(h)): 87% | activity at 1 µM (HRI(h)): 100% | activity at 1 µM (Fms(Y969C)(h)): 31% | activity at 1 µM (PAK1(h)): 102% | activity at 1 µM (LIMK2(h)): 98% | inhibition at 1 µM (Ret(h); RET, 1 µM, read-out: inhibition (hit in panel)): > 90% | activity at 1 µM (Ret(h); Ret(h), read-out: Inhibition(%) @ 1 µM RK-019): 5% | activity at 1 µM (PhKγ2(h)): 88% | activity at 1 µM (TGFBR1(h)): 83% | activity at 1 µM (TTBK2(h)): 82% | activity at 1 µM (TAO2(h)): 95% | activity at 1 µM (CDKL1(h)): 97% | activity at 1 µM (PTK5(h)): 107% | activity at 1 µM (CDK18/cyclinY(h)): 96% | activity at 1 µM (CK1γ2(h)): 97% | activity at 1 µM (LRRK2(h)): 80% | activity at 1 µM (NEK6(h)): 97% | activity at 1 µM (PKA(h)): 94% | activity at 1 µM (cKit(D816V)(h)): 93% | activity at 1 µM (TTBK1(h)): 90% | activity at 1 µM (GRK5(h)): 135% | activity at 1 µM (Fgr(h)): 54% | activity at 1 µM [1]: 93% | activity at 1 µM (Fer(h)): 127% | activity at 1 µM (PRK2(h)): 106% | activity at 1 µM (NEK1(h)): 52% | activity at 1 µM [2]: 98% | activity at 1 µM (p70S6K(h)): 119% | activity at 1 µM (mTOR/FKBP12(h)): 92% | activity at 1 µM (BTK(R28H)(h)): 83% | activity at 1 µM (CDKL3(h)): 102% | activity at 1 µM (PI3 Kinase (p120g)(h)): 102% | activity at 1 µM (CDK5/p25(h)): 112% | activity at 1 µM (BIKe(h)): 93% | activity at 1 µM (CaMKIß(h)): 97% | activity at 1 µM (MELK(h)): 104% | activity at 1 µM (VRK2(h)): 104%
